Our source for the IC50 values is article PMC8774285, “In Silico, In Vitro and In Vivo Analysis of Tanshinone IIA and Cryptotanshinone from Salvia miltiorrhiza as Modulators of Cyclooxygenase-2/mPGES-1/Endothelial Prostaglandin EP3 Pathway” (Biomolecules, 2022).

Holding throughout (assay type): biochemical
In one assay the target is T1, cyclooxygenase-2 (COX-2) (Homo sapiens, UniProt P35354).
T1 construct: gene PTGS2; recombinant human COX-2
T1 sequence (P35354 18-604): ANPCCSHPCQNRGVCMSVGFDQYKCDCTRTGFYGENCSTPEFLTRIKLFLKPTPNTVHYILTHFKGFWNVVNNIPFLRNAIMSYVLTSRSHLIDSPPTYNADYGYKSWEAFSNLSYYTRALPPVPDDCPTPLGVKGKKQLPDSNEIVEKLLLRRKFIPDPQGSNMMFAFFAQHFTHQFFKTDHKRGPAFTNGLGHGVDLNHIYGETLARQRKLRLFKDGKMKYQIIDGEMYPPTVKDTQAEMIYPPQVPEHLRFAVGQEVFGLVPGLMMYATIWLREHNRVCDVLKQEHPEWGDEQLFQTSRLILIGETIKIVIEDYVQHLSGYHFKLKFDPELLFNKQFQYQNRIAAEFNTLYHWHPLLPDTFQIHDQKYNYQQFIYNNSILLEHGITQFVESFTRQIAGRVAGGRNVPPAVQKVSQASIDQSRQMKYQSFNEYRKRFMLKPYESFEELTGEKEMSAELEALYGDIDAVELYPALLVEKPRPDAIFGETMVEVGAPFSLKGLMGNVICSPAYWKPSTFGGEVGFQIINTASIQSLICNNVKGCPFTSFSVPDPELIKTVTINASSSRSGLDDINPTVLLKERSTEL
Put plainly: isolated COX-2 activity assay ([…] AA, 12-HHT formation); […] residual activity at […].

For another assay, the target named is T2, 5-lipoxygenase (5-LO) (Homo sapiens, UniProt P09917).
T2 construct: gene ALOX5; recombinant, expressed in E. coli BL21 (DE3) with pT3-5-LO, purified on ATP-agarose
T2 sequence (P09917 1-674): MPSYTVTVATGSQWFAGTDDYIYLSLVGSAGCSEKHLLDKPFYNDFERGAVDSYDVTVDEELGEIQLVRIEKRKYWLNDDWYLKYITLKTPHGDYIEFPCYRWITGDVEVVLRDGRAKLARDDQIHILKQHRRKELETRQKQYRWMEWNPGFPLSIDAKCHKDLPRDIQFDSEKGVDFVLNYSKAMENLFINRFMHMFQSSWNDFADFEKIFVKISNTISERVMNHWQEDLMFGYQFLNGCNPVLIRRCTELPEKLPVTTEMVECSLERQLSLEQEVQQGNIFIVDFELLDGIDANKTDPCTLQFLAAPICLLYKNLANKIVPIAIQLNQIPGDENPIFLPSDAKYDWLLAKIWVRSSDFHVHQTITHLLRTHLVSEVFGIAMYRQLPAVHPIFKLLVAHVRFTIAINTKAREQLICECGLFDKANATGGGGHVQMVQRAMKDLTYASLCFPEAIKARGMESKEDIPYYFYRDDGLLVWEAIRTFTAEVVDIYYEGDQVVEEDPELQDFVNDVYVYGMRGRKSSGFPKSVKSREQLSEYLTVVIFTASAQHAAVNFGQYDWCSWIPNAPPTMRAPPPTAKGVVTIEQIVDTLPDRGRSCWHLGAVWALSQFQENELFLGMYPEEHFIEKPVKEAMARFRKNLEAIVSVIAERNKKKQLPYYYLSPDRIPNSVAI
Put plainly: isolated 5-LO activity assay ([…] AA, products by RP-HPLC).

The target in another assay is T3, cyclooxygenase-1 (COX-1) (Ovis aries, UniProt P05979).
T3 construct: gene PTGS1; purified ovine COX-1
T3 sequence (P05979 25-600): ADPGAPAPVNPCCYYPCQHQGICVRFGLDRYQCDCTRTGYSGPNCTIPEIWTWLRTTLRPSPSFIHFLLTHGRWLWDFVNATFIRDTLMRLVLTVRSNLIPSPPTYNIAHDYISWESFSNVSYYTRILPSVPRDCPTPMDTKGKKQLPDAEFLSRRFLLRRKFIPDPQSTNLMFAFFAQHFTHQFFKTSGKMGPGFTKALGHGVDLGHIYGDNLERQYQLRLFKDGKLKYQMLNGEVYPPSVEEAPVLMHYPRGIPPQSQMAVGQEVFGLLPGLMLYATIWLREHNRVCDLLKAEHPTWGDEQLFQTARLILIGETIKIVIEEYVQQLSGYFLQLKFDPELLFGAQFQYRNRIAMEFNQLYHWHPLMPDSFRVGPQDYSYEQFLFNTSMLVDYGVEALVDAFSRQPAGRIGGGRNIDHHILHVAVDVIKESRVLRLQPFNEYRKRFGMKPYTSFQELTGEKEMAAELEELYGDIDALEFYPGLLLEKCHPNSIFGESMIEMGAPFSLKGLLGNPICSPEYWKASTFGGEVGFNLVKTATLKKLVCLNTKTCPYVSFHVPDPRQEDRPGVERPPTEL
Put plainly: isolated COX-1 activity assay ([…] AA, 12-HHT formation); […] residual activity at […].

The IC50 is the midpoint of a concentration-inhibition curve. Low values mean greater potency in that assay, high ones weaker potency in that assay. On to `C[C@H]1COC2=C1C(=O)C(=O)c1c2ccc2c1CCCC2(C)C` [CRY, cryptotanshinone], for which the IC50 is more than 30 µM against cyclooxygenase-2 (COX-2), 7.1 µM against 5-lipoxygenase (5-LO) and more than 30 µM against cyclooxygenase-1 (COX-1).
